Results reported in PubChem BioAssay (NCI).
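48-hour exposure; five concentrations; linearly interpolated endpoints. The concentration for full growth arrest is given as TGI.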

Key:
Experiment in all cases: growth of human tumour cells (NCI), 48 h
CCRF-CEM leukemia = system: CCRF-CEM leukemia
OVCAR-3 ovarian = system: OVCAR-3 ovarian
SK-OV-3 ovarian = system: SK-OV-3 ovarian
NCI/ADR-RES ovarian = system: NCI/ADR-RES ovarian
M14 melanoma = system: M14 melanoma
UACC-62 melanoma = system: UACC-62 melanoma
UACC-257 melanoma = system: UACC-257 melanoma
NCI-H522 lung = system: NCI-H522 lung
ACHN renal = system: ACHN renal
HL-60(TB) leukemia = system: HL-60(TB) leukemia

SMILES	TGI (CCRF-CEM leukemia) [µM]	TGI (OVCAR-3 ovarian) [µM]	TGI (SK-OV-3 ovarian) [µM]	TGI (NCI/ADR-RES ovarian) [µM]	TGI (M14 melanoma) [µM]	TGI (UACC-62 melanoma) [µM]	TGI (UACC-257 melanoma) [µM]	TGI (NCI-H522 lung) [µM]	TGI (ACHN renal) [µM]	TGI (HL-60(TB) leukemia) [µM]
CSCCC(NC(=O)OC(C)(C)C)C(=O)NCCNc1ccc(NCCNC(=O)C(CCSC)NC(=O)OC(C)(C)C)c2c1C(=O)c1ccccc1C2=O (centres undefined)	> 38	15.6	32.9	> 100	14.1	14.4	12.1	3.38	30.3	
COc1ccc2c(c1)CCc1c-2n(CCN(C)C)c2ccc(OC)cc12	9.5	> 100	87.1	46.1	> 100	> 100	> 100	75.9	> 100	
Cc1cc(S(=O)(=O)Nc2nc(N)nc(N3N=CCC3C)n2)c(S)cc1Cl (centres undefined)	> 10	> 10	> 10	> 10	> 10		> 10	> 10	> 10	> 10
O=C1[C@@H]2Cc3c([nH]c4ccccc34)C(C3CCCCC3)N2C(=O)[C@@H]2CCCN12 (some centres undefined)		51.7	> 100	78.7	> 100	49	80.7	63.1	> 100	59.2
NC(CCCCNC(=O)OCc1ccccc1)C(=O)NC(CCCCNC(=O)OCc1ccccc1)C(=O)ON1C(=O)CCC1=O (centres undefined)	> 100				> 100	> 100	> 100		> 100	> 100
NC(=O)COc1ccccc1	> 100	> 100	> 100		> 100	> 100	> 100	> 100	> 100	> 100
COc1ccc(OC)c2cc(Cc3ccc(N(C)C)cc3)c(=O)c(Cc3ccc(N(C)C)cc3)cc12	> 100	> 100	> 100	> 100	> 100	> 100	> 100	89.9	> 100	
COC(=O)c1cncc2c1CC1C3(C(=O)OC)C=NC(C4C(CO)=CCC43)C21C (centres undefined)	> 100			> 100	> 100		> 100	> 100	> 100	> 100
Nc1nc2c(ncn2C2C=CC(CO)O2)c(=O)[nH]1 (centres undefined)	> 100	> 100		> 100	> 100		> 100			
OC1OC(c2ccco2)C(F)(F)C(F)(F)C1(F)F (centres undefined)	> 100	> 100	> 100	> 100	> 100	> 100	> 100		> 100	> 100
CCCCCCCCCCCCCCCCNc1nc(=O)n(C2CC(O)C(CO)O2)cc1F (centres undefined)		39.3	28.3	27.1	27.2	22.8	33.9	20.7	11.9	27.7
COS(=O)c1cc(Cl)cc(Cl)c1O (centres undefined)	> 100	> 100	> 100		> 100	> 100	> 100	36.3	> 100	> 100
